Reference: patent US20140171320A1, “Composition Comprising A Pesticide And An Alkoxylate Of 2-Isopropyl-5-Methylhexane-1-Amine” (BASF SE, priority 2012, published 2014)

Columns and labels:
[1] = test system: maize (cultivar Amadeo); assay: Greenhouse herbicidal activity of glyphosate SL formulation with amine alkoxylate adjuvant on maize; assay type: in vivo; conditions: after 21 days; 140 g glyphosate-IPA salt/ha and 300 g amine alkoxylate/ha, 375 l/ha water; score vs untreated plants
Method: (§1) For the greenhouse tests, winter wheat (cultivar Cubus), soybean (cultivar Sultana), and maize (cultivar Amadeo) was sown or potted in loamy sandy soil to a depth of 1-2 cm. When the plants had reached a growth height of 10 to 25 cm (i.e., around 10 to 21 days after sowing), the spray mixtures were applied to the plants in a spraying cabin.
(§2) A concentrated formulation comprising glyphosate isopropylammonium in solution in water and amine alkoxylate from Example 2 was diluted with deionized water and applied at a water application rate of 375 l/ha (140 g of glyphosate-IPA salt/ha and 300 g of amine alkoxylate/ha). The temperatures in the experimental period, which lasted for 3 weeks, were between 18-35° C. During this time, the experimental plants received optimum watering, with nutrients being supplied via the water used for watering.
(§3) The herbicidal activity was evaluated by awarding scores to the treated plants in comparison to the untreated control plants (Table 2). The evaluation scale ranges from 0% to 100% activity. 100% activity means the complete death at least of those parts of the plant that are above ground. Conversely, 0% activity means that there were no differences between treated and untreated plants.

[2] = test system: soybean (cultivar Sultana); assay: Greenhouse herbicidal activity of glyphosate SL formulation with amine alkoxylate adjuvant on soybean; assay type: in vivo; conditions: after 21 days; 140 g glyphosate-IPA salt/ha and 300 g amine alkoxylate/ha, 375 l/ha water; score vs untreated plants
Method: as §1, §2, §3

[3] = test system: Setaria verticillata (SETVE); assay: Greenhouse herbicidal activity of glyphosate SL formulation with amine alkoxylate adjuvant on Setaria; assay type: in vivo; conditions: after 21 days; 140 g glyphosate-IPA salt/ha and 300 g amine alkoxylate/ha; score vs untreated plants
Method: as §1, §2, §3
(§4) The experiments were carried out as in Example 3, on Sorghum halepense (SORHA) and Setaria verticillata (SETVE). The application rate was 140 g of glyphosate-IPA salt/ha and 300 g of amine alkoxylate/ha.

[4] = test system: Sorghum halepense (SORHA); assay: Greenhouse herbicidal activity of glyphosate SL formulation with amine alkoxylate adjuvant on Sorghum; assay type: in vivo; conditions: after 21 days; 140 g glyphosate-IPA salt/ha and 300 g amine alkoxylate/ha; score vs untreated plants
Method: as §1, §2, §3, §4

[5] = test system: winter wheat (cultivar Cubus); assay: Greenhouse herbicidal activity of glyphosate SL formulation with amine alkoxylate adjuvant on winter wheat; assay type: in vivo; conditions: after 21 days; 140 g glyphosate-IPA salt/ha and 300 g amine alkoxylate/ha, 375 l/ha water; score vs untreated plants
Method: as §1, §2, §3

[6] = Storage stability of aqueous glyphosate formulation; assay type: physicochemical; conditions: 41.5% by weight glyphosate-isopropylammonium salt and 15.5% by weight amine alkoxylate, −5 to +55° C.

Storage stability [6]	Molecule	Activity [%] Maize [1] [%]	Activity [%] Soybean [2] [%]	Activity [%] SETARIA [3] [%]	Activity [%] SORHA [4] [%]	Activity [%] Winter wheat [5] [%]
–	2-propylheptylamine-10 EO	80	42	88	97	55
–	CC(C)N.O=C(O)CNCP(=O)(O)O [—, glyphosate isopropylammonium]	32	20	58	33	18
storage stable for at least two weeks	2-Isopropyl-5-methylhexane-1-amine-10 EO	80	48	78	93	62
